Patent US20040037775A1, “Leukocyte internalized peptide-drug conjugates” (priority 2000, published 2004)
Entries after “also recorded” stand apart in the source; their conditions may differ. Starred links: 1 amine or outer side, 2 acyl side, 3 side chain; linkers in the order of their positions; H or OH if unused. Positions of bridges follow the written chain, without caps; N, C: chain ends. Non-standard residues stand in square brackets, D forms with d. Residues, ends and D or L forms follow the SMILES beside them. *: point of attachment. DAMPA = CN(Cc1cnc2nc(N)nc(N)c2n1)c1ccc(C(=O)*)cc1; γGlu = O=C(O)[C@H](CCC(=O)[*:2])N[*:1]; Pen = CC(C)(S)[C@H](N)C(=O)O

Assays:
Molt-3 T-cells [1] = test: propidium iodide assay of growth and cytotoxicity in Molt-3 T-cells; assay type: cell-based, human; details: tested 0.1-500 μM
[2] = tested on: L1210 mouse leukemia cells; test: cells; assay type: cell-based; details: 48 h
Procedure: (§1) The cytotoxicity of MTX-peptide conjugates was evaluated in different cell lines, lincluding Molt-3 and L1210 T-cells, and KB epithelial cells. […] After 72 h of growth, the relative numbers of viable cells were determined according to the manufacture's protocols for measuring cytotoxicity using a Dojindo Cytotoxicity Assay Cell counting Kit-8 (CCK-8). To measure the cell viability, 10 μL of CCK-8 was added to each well and the plate was incubated for 4 h. After incubation, the absorbance at 450 nm was measured using a UV plate reader. Cell growth in the presence of different drug concentrations was calculated relative to the value obtained in the absence of the drug. […] Serial dilutions of compounds were prepared in un-supplemented medium, and 110 μL of drug solution was aliquoted in duplicate into 900 μL cell suspensions. Control flasks were treated with 110 μL of un-supplemented medium. Cells were incubated under standard conditions for 48 h, sufficient to allow control cells to divide approximately four times. Growth inhibition was determined by counting the cells on a Z2 model Coulter Counter (Coulter Electronics Ltd, Luton, Beds, UK). The IC50 values were calculated using Graphpad Prism software (Graphpad Software, San Diego, Calif.). KB MTT Assay: KB cells were seeded in Falcons® 96 well plates (Becton-Dickinson Labware Europe, France) at a density of 1,500 cells/well in a volume of 0.18 mL culture medium and incubated under standard culture conditions for 24 h after seeding to allow entry into the exponential phase of cell growth. […] In each assay condition, control cells were treated with 20 μL of un-supplemented medium instead of drug. Cells were incubated for 96 h to allow control cells to divide approximately four times before cell viability was determined by MTT assay.

Molt-3 T-cells [3] = test: cells; assay type: cell-based, human; details: 72 h
Procedure: as §1

[4] = tested on: Molt-3 T-cells/Calu-3 lung epithelial monolayers; test: heterotypic adhesion of Molt-3 T-cells to Calu-3 lung epithelial monolayers; assay type: cell-based, human; details: for effect on adherence of Molt-3 T-cells to Calu-3 monolayers: IFN-γ-induced Calu-3, PMA-activated Molt-3
Procedure: Molt-3, Caco-2 and Calu-3 cell lines were obtained from the American Type Culture Collection (Rockville, Md.). Molt-3 and Caco-2 cells were maintained and grown using known methods. Briefly, the Caco-2 cell-line was grown as monolayers in Dulbecco's modified Eagle's medium (DMEM) with 25 mM glucose containing 10% FBS, 1% nonessential amino acids, 1 mM Na-pyruvate, 1% L-glutamine and […] of penicillin/streptomycin. Cells were grown in 75-cm^2 tissue culture flasks (Falcon) for maintenance purposes and in a 48-well cell culture cluster (Costar) for heterotypic-adhesion experiments. Before confluency was reached, Caco-2 cells were induced with 100 U/mL IFN-γ for 24 h to up-regulate the ICAM-1 expression. Calu-3, a lung epithelial cell line, was maintained in a 1:1 mixture of Ham's F12:DMEM containing 10% FBS and 100 μg/mL penicillin/streptomycin. Upon reaching 90% confluency (approximately 4-5 days), cells were subcultured at a 1:2 split ratio using 0.25% trypsin/0.1% EDTA. Calu-3 cells were induced with 500 U/mL IFN-γ for 48 h to up-regulate the ICAM-1 expression. All cell lines were grown in a 95% humidified/5% CO2 atmosphere at 37° C.
Heterotypic Adhesion Experiments with LFA-1 derived peptides—Two heterotypic cell adhesion systems were used in this work. The adhesion between Molt-3 T-cells/Calu-3 lung epithelial monolayers was used to assess the inhibitory activities of cLAB.L and cLAB.2L; Molt-3 T-cells/Caco-2 colon epithelial monolayers system was for cLAB.L and its derivatives. Briefly, Calu-3 or Caco-2 cell monolayers were pretreated with peptide solution prior to the adherence of fluorescence-labeled Molt-3 cells. […] Soluble lysates were transferred to 96-well (clear-bottom, black-sided) plates (Costar) for reading in a microplate fluorescence analyzer (Bio-Tek FL600) to give relative fluorescence (FL), i.e., the reading of fluorescence intensity of adherent corrected with the reading of cell monolayers only. Data were presented as the percentage of T-cell adherence calculated as follows: […]

KB epithelial cells = test: KB MTT assay (96 h); assay type: cell-based, human
Procedure: Human KB epithelial l cells: The human KB epithelial cell line was a gift from Dr Gerrit Jansen (University Free Hospital, Amsterdam, Netherlands) and was developed to overexpress the membrane folate binding protein (mFBP). Cells were cultured in RPMI 1640 medium without folic acid and supplemented with 10% heat inactivated dialyzed FCS (50 mL volume), 0.2 mL of 50 μg/mL gentamicin, 1 mL of 50 μg/mL amphotericin B, and 5 mL of 200 mM L-glutamine. The folate source, 20 nM (R,S)-LV, was added to supply cells with adequate growth conditions.
The cytotoxicity of MTX-peptide conjugates was evaluated in different cell lines, lincluding Molt-3 and L1210 T-cells, and KB epithelial cells. […] After 72 h of growth, the relative numbers of viable cells were determined according to the manufacture's protocols for measuring cytotoxicity using a Dojindo Cytotoxicity Assay Cell counting Kit-8 (CCK-8). To measure the cell viability, 10 μL of CCK-8 was added to each well and the plate was incubated for 4 h. After incubation, the absorbance at 450 nm was measured using a UV plate reader. Cell growth in the presence of different drug concentrations was calculated relative to the value obtained in the absence of the drug. […] Growth inhibition was determined by counting the cells on a Z2 model Coulter Counter (Coulter Electronics Ltd, Luton, Beds, UK). The IC50 values were calculated using Graphpad Prism software (Graphpad Software, San Diego, Calif.). […] Cells were incubated for 96 h to allow control cells to divide approximately four times before cell viability was determined by MTT assay.
The number of viable cells after a 96-h incubation was determined by assessing their ability to reduce MTT ([…]). […] The absorbance of the solution in each well was measured at 540 nm on a MCC/340 model Titertak Multiscan® plate reader (Labsystems/Flow Laboratories, Oxfordshire, UK). The results were analyzed using Ascent Research software v.2.1 (Labsystems, UK).

[5] = tested on: dihydrofolate reductase enzyme (DHFR); test: DHFR inhibition assay (spectrophotometric NADPH loss, Dixon plots); assay type: biochemical
Procedure: Into a 2.0 mL cuvette, a 1.0 mL solution of 0.11 mM β-NADPH and 33 μL of 2.3 mM DHFA were aliquoted and allowed to equilibrate. […] To begin the assay, 33 μL of DHFR (0.12-0.25 unit/mL with 0.1% BSA) was added to the reaction mixture. The absorbance of the reaction mixture was then recorded continuously for 5 min at 340 nm and the enzyme activity was determined by the rate of NADPH loss. Enzyme activity was determined for three different fixed concentrations of substrate (0.19, 1.9 and 10.0 mM DHFA).

[6] = tested on: LFA-1 receptor on Molt-3 T-cells; test: protection against MTX-cIBR toxicity in Molt-3 T-cells (LFA-1 mediated internalization, MTT); assay type: cell-based, human; details: similar experiment
Procedure: As a control, some cells were left untreated. […] As a reference for minimal metabolic activity, 10 mM of the succinate dehydrogenase inhibitor iodoacetamide (IAA) was added to untreated wells. […] The tubes were spun to pellet the cells and the supernatant was carefully removed. The formazan crystals were dissolved in 200 μL of 0.04 N HCl in isopropanol; the tubes were sonicated for 5 min to completely dissolve crystals and then re-centrifuged to pelletize the cell debris. 100 μL aliquots of the supernatant solutions were removed and transferred to a 96-well microtiter plate. The optical density of the solution was measured at 570 nm using a UV plate reader.

For cyclol,12-PenDLSTSLDDLRC [cLBE.L], which “concentration at which total growth inhibition emerged in Molt-3 cells” value (Molt-3 T-cells [1]) is on record?
Its value is 100 µM.

Which IC50 [2] does the source give for `CC(C)[C@H](NC(=O)[C@H](CO)NC(=O)CNC(=O)CNC(=O)[C@H](CCCNC(=N)N)NC(=O)[C@@H]1CCCN1C(=O)CC[C@H](NC(=O)c1ccc(N(C)Cc2cnc3nc(N)nc(N)c3n2)cc1)C(=O)O)C(N)=O` [MTX-PRGGSV] ({DAMPA-γGlu}-PRGGSV-NH2) here?
Its IC50 is 1.6 ± 0.4 µM.

What about the IC50 (Molt-3 T-cells [3]) of the same compound?
Its IC50 is 5.13 ± 0.6 µM.

How did the “concentration at which total growth inhibition emerged in Molt-3 cells” value (Molt-3 T-cells [1]) turn out when cyclol,12-PenITDGEATDSGC [cLAB.L] was run?
Its value is 100 µM.

And the “effect on adherence of Molt-3 T-cells to Calu-3 monolayers” value [4]?
Its value is “significantly reduces”.

And the “inhibition of heterotypic cell adhesion” value ([4]; IFN-γ-induced Calu-3 monolayers, BCECF labeled Molt-3 cells)?
The value was “about 40%”.

What does the source list for `CC[C@H](C)[C@@H]1NC(=O)[C@H](C(C)C)NC(=O)[C@H](CCCCN)NC(=O)[C@H](CO)NC(=O)[C@@H]2CCCN2C(=O)[C@H](CO)NC(=O)[C@H](C(C)C)NC(=O)[C@H](CO)NC(=O)[C@H]([C@@H](C)O)NC(=O)[C@H](CCC(N)=O)NC(=O)[C@@H](NC(=O)CC[C@H](NC(=O)c2ccc(N(C)Cc3cnc4nc(N)nc(N)c4n3)cc2)C(=O)O)C(C)(C)SSC[C@@H](C(=O)O)NC1=O` [MTX-cIBL] ({DAMPA-γGlu}-[Pen]QTSVSPSKVIC-OH; disulfide 1-12)?
IC50 [2]: 9.14 ± 1 µM; IC50 (KB epithelial cells): > 10 µM; IC50 (Molt-3 T-cells [3]): 2.68 ± 0.2 µM; Km relative to that of MTX [5]: approximately 4 fold; Ymax ([5]; from Dixon plots): 4.26 ± 0.07 × 10^−4

For `CC(C)C[C@@H]1NC(=O)[C@H](C(C)C)NC(=O)[C@H](CO)NC(=O)CNC(=O)CNC(=O)[C@H](CCCNC(=N)N)NC(=O)[C@@H]2CCCN2C(=O)[C@@H](N)C(C)(C)SSC[C@@H](C(=O)O)NC(=O)CNC(=O)[C@H]([C@@H](C)O)NC(=O)[C@H](C(C)C)NC1=O` [cIBR peptide] (H-[Pen]PRGGSVLVTGC-OH; disulfide 1-12), which “effect on cytotoxicity of MTX-cIBR” value [6] is on record?
Its value is “reduced the cytotoxicity of MTX-cIBR in a concentration dependent manner”.

`CC[C@H](C)[C@H](NC(=O)[C@@H](NC(=O)CC[C@H](NC(=O)c1ccc(N(C)Cc2cnc3nc(N)nc(N)c3n2)cc1)C(=O)O)C(C)C)C(=O)N[C@@H](CC(C)C)C(=O)N1CCC[C@H]1C(=O)N[C@@H](CCCNC(=N)N)C(=O)NCC(N)=O` [MTX-VILPRG] ({DAMPA-γGlu}-VILPRG-NH2) was tested. Which IC50 [2] did it give?
The IC50 was 0.7 ± 0.3 µM.

And the IC50 (Molt-3 T-cells [3])?
The IC50 was 9.12 ± 0.2 µM.

For “Xaa-Gly Val Asp Val Asp Glp Asp Gly Glu Thr-Cys [cLAB.2L, cyclic domain V peptide of LFA-1]”, which “effect on adherence of Molt-3 T-cells to Calu-3 monolayers” value [4] is on record?
Its value is “did not interfere; also recorded: no significant effect”.
